Results from US20110124572A1, “SYNDECAN-4 IS A REGULATOR OF RAC1-GTP” (priority 2008, published 2011).
“And” between values parts separate entries of the source, which are not always exact repeats. Identical values can stand only once.

Legend:
Assay type in all cases: cell-based, human
Rac1 = Rac1 GTPase pulldown assay (Rac1-GTP level); conditions: wt-, Ser179Ala and Ser179Glu syndecan-4 cell lines, Gö6976
Description: Rac1 activity was characterised by applying RAC-activation kit purchased from Millipore (Upstate) and it was used according to the manufacturer's prescription. Briefly, p21-binding domain of PAK-1 was fused to agarose beads, which specifically binds to and precipitates Rac-GTP and Cdc42-GTP from cell lysates. Cells were harvested at 70% confluency of 25 ml flasks. The wild type Syndecan-4, Ser179Ala and Ser179Glu cells were treated for 60 minutes with 1 μM PMA (Sigma-Aldrich), or 500 nM rottlerin (Sigma-Aldrich), or 10 nM Gö6976 (Biosource, Camarillo, Calif., USA). The active Rac1 was detected by Western blotting using mouse anti-Rac1 antibody (Upstate). To test whether GST-Pak1-Rac/Cdc42-binding domain could pull syndecan-4 down, the blot was probed with rabbit polyclonal anti-syndecan-4 or mouse monoclonal anti-GFP antibody.

MCF7 cells = experiment: Neuronal differentiation under serum starvation; conditions: 4-5 weeks, bIII-tubulin marker
Description: FIG. 8. Neuronal differentiation induced by short Syndecan-4 peptides. MCF7 cells were transfected with wild type syndecan-4 (A) and DEGEpC3 (B), respectively. […] Red: b3-tubulin staining. Blue: Hoechst nuclear staining (A). DEGEpC3: […] was joined to GFP.
Short peptides with the sequence […] (SEQ.ID.NO.: 3) and […] (SEQ.ID.NO.: 4) were tested under serum starvation.

MCF-7 cells = experiment: Cell migration assay (time-lapse) on fibronectin; conditions: nt-MCF-7 (non-transfected) cells, PMA stimulation, solitary cell migration
Description: The MCF-7 breast adenocarcinoma cells were obtained from ATCC, cultured in DMEM:F12 (Cambrex, Walkersville, Md., USA) supplemented with 10% fetal bovine serum (FBS) (Gibco, Bethesda, Md., USA), otherwise stated. The stably transfected cell lines were propagated in DMEM:F12 medium supplemented with 10% FBS and 200 μg/ml G418 (Cambrex, Walkersville, Md., USA). The cell lines were seeded onto glass coverslips or plastic dishes coated for 2 h with 10 μg/ml fibronectin (Sigma-Aldrich, St. Louis, Mo., USA). Scratch-wound assays were performed on stable transfected Syndecan-4 wild, Ser179Ala and Ser179Glu cells at 80% confluency. The cultures were scratched with a sterile P10 pipette tip 3-4 times in parallel lines. Images were taken 12, 24, 36 and 48 h following wounding.
In the cell migration assay 60% confluent MCF7 cells or the stably transfected lines were stimulated by 1 μM phorbol-12-myristate-13-acetate (PMA; from Sigma-Aldrich St. Louis, Mo., USA), otherwise stated. The images were taken using 10×, 20×0.3 objective at 3-min intervals for 2 h using inverted microscope (Leica) and organized into time-lapse movies in Adobe ImageReady® v. 8.
Results of the previous scratch-wound assay gave a hint that the Ser179Glu cells gained a migratory phenotype. […]

| Molecule | neuronal differentiation phenotype (MCF7 cells) | further results |
| --- | --- | --- |
| Cn1c2ccccc2c2c3c(c4c5ccccc5n(CCC#N)c4c21)C(=O)NC3 [Gö6976, reference compound] | – | activated Rac1 level (Rac1): reduced |
| MYRMKKKDEGEYDL [DEGEpC3] | neuron-like phenotype | – |
| CCCCCCCCCCCCCC(=O)O[C@@H]1[C@@H](C)[C@@]2(O)[C@@H](C=C(CO)C[C@]3(O)C(=O)C(C)=C[C@@H]23)[C@@H]2C(C)(C)[C@]12OC(C)=O [PMA, phorbol-12-myristate-13-acetate, reference compound] | – | migration velocity (MCF-7 cells): 0.3±0.1 μm/min and 0.3 μm/min |
| RMKKKDEGEYDLG (Syndecan-4 sequence) [SEQ.ID.NO.: 3] | neuron-like phenotypes | – |
| RMKKKDEGDYDLG (Syndecan-4 sequence) [SEQ.ID.NO.: 4] | neuron-like phenotypes | – |
